How the values were obtained:
[1] = system: non-small cell lung cancer cell lines; test: Glucose utilization; type: cell-based, human; details: data not shown
Procedure: (§1) To determine the effect of Compound C0105 on glucose utilization, the cancer and primary normal cells were plated extremely thinly (10%). Once cells attached, Compound C0105 was added at 0.1, 0.5, 1 or 5 nM in the medium twice daily (6 hours apart) for 4 days. The cells were serum-deprived (glucose deprived) for 2 hours. Cells were then rinsed with 1 ml PBS and glucose uptake was assessed by contacting the cells with [^3H]glucose (0.01 uCi/l ml) in Kreb's Ringer for 2 hours. Cells were then rinsed with 1 ml PBS 3 times, scraped off and their glucose content counted by liquid scintillation spectrophotometry.
. Primary lung fibroblast cells were used as control, non-cancerous cells to illustrate the difference in effects observed (FIG. 1C, FIGS. 1H-1I).

[2] = system: primary human pancreatic epithelial cells; test: [3H]glucose uptake; type: cell-based; details: 0.1-5 nM; 4 days
Procedure: as §1, with “FIG. 1A through FIG. 1M illustrate the effects of various FLNA-binding compounds on glucose uptake in glioblastoma, melanoma, breast and pancreatic cancer cell lines, along with appropriate non-cancerous primary cell controls. Cells were grown in the absence or presence of 0.1-5 nM indicated compounds for 4 days. Following brief washes with PBS, cells were serum-deprived for 4 hours and then incubated in oxygenated Kreb's Ringer containing 0.1 μCi [^3H]glucose for 2 hours under constant oxygenation. The reaction was terminated by removal of the incubation medium, and cells were washed and scraped off to determine the amounts of [^3H]glucose in cells by scintillation spectrometry. […] N=5-6. […] . […] . To” for “To”

[3] = system: human mammalian epithelial cells (HMEC); test: [3H]glucose uptake; type: cell-based; details: 0.1-5 nM; 4 days
Procedure: as §1, with “FIG. 1A through FIG. 1M illustrate the effects of various FLNA-binding compounds on glucose uptake in glioblastoma, melanoma, breast and pancreatic cancer cell lines, along with appropriate non-cancerous primary cell controls. Cells were grown in the absence or presence of 0.1-5 nM indicated compounds for 4 days. Following brief washes with PBS, cells were serum-deprived for 4 hours and then incubated in oxygenated Kreb's Ringer containing 0.1 μCi [^3H]glucose for 2 hours under constant oxygenation. The reaction was terminated by removal of the incubation medium, and cells were washed and scraped off to determine the amounts of [^3H]glucose in cells by scintillation spectrometry. […] N=5-6. […] . […] . To” for “To”

[4] = system: GTP-bound K-ras in glioblastoma cell line (U87); test: Active K-ras (GTP-bound K-ras) Raf1 RBD pull-down assay; type: cell-based, human; details: 0.1, 0.5, 1 and 5 nM; 4-day treatment
Procedure: (§2) FIGS. 31A and 31B illustrate the effects of illustrative Compound C0105 on levels of active K-ras (GTP-bound K-ras), assessed using the agarose bead-bound Raf1 RBD pull-down assay in melanoma, two different pancreatic cancerous cell lines (MiaPaCa2 and BxPc3) and a glioblastoma cell line (U87). The cells were treated (contacted) with zero (vehicle), 0.1, 0.5, 1 and 5 nM Compound C0105 as previously discussed. The thus obtained GTP-bound K-ras was subjected to Western blotting using anti-ras antibodies for identification, the blot densities determined and statistically analyzed as discussed previously.
(§3) In a separate series of studies, the level of active K-RAS (GTP-bound K-RAS) was determined by precipitation using Raf RBD-conjugated agarose beads from 100 μg of lysates of cancer cells (prepared as described above) following 4-day treatment with varying concentrations of Compound C0105. To ascertain even loading, actin in the cell lysates was immunoprecipitated with goat anti-actin. The precipitates were collected by centrifugation, washed and the active K-RAS and actin eluted by boiling for 5 min in 1×SDS-PAGE. The levels of active K-RAS and actin in 50 μg of cell lysates were size-fractionated on 12% SDS-PAGE, electrophorectically transferred to nitrocellulose membranes and determined by Western blotting with specific monoclonal antibodies against K-RAS and actin.

[5] = system: GTP-bound K-ras in melanoma cells; test: as above; type: cell-based, human; details: 0.1, 0.5, 1 and 5 nM; 4-day treatment
Procedure: as §2, §3

[6] = system: GTP-bound K-ras in MiaPaCa2 cells; test: as above; type: cell-based, human; details: 0.1, 0.5, 1 and 5 nM; 4-day treatment
Procedure: as §2, §3

[7] = system: GTP-bound K-ras in BxPc3 cells; test: as above; type: cell-based, human; details: 0.1, 0.5, 1 and 5 nM; 4-day treatment
Procedure: as §2, §3

[8] = system: glioblastoma (U-87MG) cells; test: Cell proliferation by cell-cycling markers Ki67 and PCNA (Western blots); type: cell-based, human; details: 0.1-5 nM; 4 days
Procedure: The effect of contact with Compound C0105 on cell proliferation was determined by the levels of cell-cycling markers: Ki67 and PCNA using Western blots in glioblastoma (U-87MG) cells. Cells contacted with vehicle and 0.1-5 nM Compound C0105 for 4 days were collected, washed and solubilized. The resultant cell lysates were size-fractionated on SDS-PAGE and Western blotting to determine the levels of Ki67, PCNA and actin (loading control). The protein bands were quantified using densitometric scanning. […] N=4. *p<0.01 compared to vehicle (open bars).
To study the effect of Compound C0105 on PI3K activity, the cancer and primary normal cells were cultured to approximately 60-70% confluency, serum deprived for 4 hours, briefly washed with PBS and treated with vehicle or 0.1, 0.5, 1 or 5 nM Compound C0105 for 24 hours with in 0.1% FBS-containing culture medium. The cells were then washed with PBS, scraped off and collected by centrifugation. The cell pellets were sonicated in ice-cold immunoprecipitation buffer and protein concentrations measured by the Bradford method. […]
Immunoreactivity was visualized by reaction in ECL Plus chemiluminescent reagent for exactly 5 minutes, followed by immediate exposure of the blot to X-ray film (Z & Z Medical). Bands at the relevant molecular masses of Ki67 and PCNA were quantified by densitometric scan. […]

[9] = system: breast cancer HTB-22 cells; test: [3H]glucose uptake; type: cell-based, human; details: 0.1-5 nM; 4 days
Procedure: as §1, with “FIG. 1A through FIG. 1M illustrate the effects of various FLNA-binding compounds on glucose uptake in glioblastoma, melanoma, breast and pancreatic cancer cell lines, along with appropriate non-cancerous primary cell controls. Cells were grown in the absence or presence of 0.1-5 nM indicated compounds for 4 days. Following brief washes with PBS, cells were serum-deprived for 4 hours and then incubated in oxygenated Kreb's Ringer containing 0.1 μCi [^3H]glucose for 2 hours under constant oxygenation. The reaction was terminated by removal of the incubation medium, and cells were washed and scraped off to determine the amounts of [^3H]glucose in cells by scintillation spectrometry. […] N=5-6. […] . […] . To” for “To”

[10] = system: pancreatic cancer MiaPaCa2 cells; test: [3H]glucose uptake; type: cell-based, human; details: 0.1-5 nM; 4 days
Procedure: as §1, with “FIG. 1A through FIG. 1M illustrate the effects of various FLNA-binding compounds on glucose uptake in glioblastoma, melanoma, breast and pancreatic cancer cell lines, along with appropriate non-cancerous primary cell controls. Cells were grown in the absence or presence of 0.1-5 nM indicated compounds for 4 days. Following brief washes with PBS, cells were serum-deprived for 4 hours and then incubated in oxygenated Kreb's Ringer containing 0.1 μCi [^3H]glucose for 2 hours under constant oxygenation. The reaction was terminated by removal of the incubation medium, and cells were washed and scraped off to determine the amounts of [^3H]glucose in cells by scintillation spectrometry. […] N=5-6. […] . […] . To” for “To”

What does the source list for `CN1CCC2(CC1)NCC(=O)N2Cc1ccccc1` [Compound C0105]?
Glucose utilization [1]: decreased the elevated glucose utilization; Basal glucose uptake [2]: no effect; Basal glucose uptake [3]: no change; GTP-bound K-ras (active K-ras) level [4]: reduced GTP-bound K-ras; GTP-bound K-ras (active K-ras) level [5]: reduced GTP-bound K-ras; GTP-bound K-ras (active K-ras) level [6]: reduced GTP-bound K-ras; GTP-bound K-ras (active K-ras) level [7]: reduced GTP-bound K-ras; Cell proliferation (Ki67 and PCNA levels) [8]: reduces cell proliferation; Basal glucose uptake [9]: dose-dependent inhibition of basal glucose uptake; Basal glucose uptake [10]: dose-dependent inhibition of basal glucose uptake

From patent US10363239B2, “Method for inhibiting growth of cancer cells” (Pain Therapeutics, Inc., priority 2013, dated 2019)
